Patent publication EP2380890A1, “New 7,8-dihydro-1,6-naphthyridin-5(6h)-one-derivatives as PDE4 inhibitors” (Almirall, S.A., priority 2010, dated 2011)

target: PDE4; assay: PDE4 assay: [3H] cAMP Scintillation Proximity Assay (SPA) of phosphodiesterase activity; type: biochemical; settings: yeast extract of recombinant PDE4 enzyme, 30 nM [3H] cAMP, 1 h at room temperature, pH 7.5
Procedure: Measurement of Phosphodiesterase Activity was done using a [3H] cAMP Scintillation Proximity Assay (SPA) (GE Healthcare). Compounds to be tested were disolved in DMSO at a stock concentration of 1mM and serial dilutions were prepared in 50% DMSO to determine IC50s.
The reactions were conducted in 96-well plates (Corning, Ref.3604) at room temperature, in 0.1 mL of reaction buffer containing (final concentrations): 50 mM Tris-HCl, pH 7.5, 8.3 mM MgCl2, 1.7 mM EGTA, 30 nM [3H] cAMP (approximately 150000 dpm/well) with or without the inhibitors. The reaction was initiated by adding yeast extract of recombinant PDE4 enzyme.
Plates were shaken for 1 h at room temperature and the incubation was terminated by adding 50 µL (0.5 mg /well) of SPA ytrium silicate beads (RPNQ 0150; GE Healthcare) in the presence of zinc sulfate. Plates were stored overnight in the dark and read on a TRILUX microtiter plate reader (Perkin Elmer).

IC50 [nM] | Compound
1.6 | COc1cccc(Nc2cc(-c3ccccc3)nc3c2C(=O)NCC3)c1 [Example 1, 4-[(3-Methoxyphenyl)amino]-2-phenyl-7,8-dihydro-1,6-naphthyridin-5(6H)-one]
12 | O=C1NCCc2nc(-c3ccccc3)cc(Nc3ccc(CCO)cc3)c21 [Example 2, 4-{[4-(2-Hydroxyethyl)phenyl]amino}-2-phenyl-7,8-dihydro-1,6-naphthyridin-5(6H)-one]
8 | COc1cccc(Nc2cc(-c3cccc(OC)c3)nc3c2C(=O)NCC3)c1 [Example 8, 2-(3-Methoxyphenyl)-4-[(3-methoxyphenyl)amino]-7,8-dihydro-1,6-naphthyridin-5(6H)-one]
32 | COc1cccc(Nc2cc(-c3ccccc3OC)nc3c2C(=O)NCC3)c1 [Example 9, 2-(2-Methoxyphenyl)-4-[(3-methoxyphenyl)amino]-7,8-dihydro-1,6-naphthyridin-5(6H)-one]
0.28 | COc1cccc(Nc2cc(-c3cccc(-c4cccc(C(N)=O)c4)c3)nc3c2C(=O)NCC3)c1 [Example 12, 3'-{4-[(3-Methoxyphenyl)amino]-5-oxo-5,6,7,8-tetrahydro-1,6-naphthyridin-2-yl}biphenyl-3-carboxamide]
0.34 | COc1cccc(Nc2cc(-c3cccc(-c4ccc(C(=O)O)cc4)c3)nc3c2C(=O)NCC3)c1 [Example 13, 3'-{4-[(3-Methoxyphenyl)amino]-5-oxo-5,6,7,8-tetrahydro-1,6-naphthyridin-2-yl}biphenyl-4-carboxylic acid]
0.23 | COc1cccc(Nc2cc(-c3cccc(-c4cccc(C(=O)NCCN(C)C)c4)c3)nc3c2C(=O)NCC3)c1 [Example 14, N-[2-(Dimethylamino)ethyl]-3'-{4-[(3-methoxyphenyl)amino]-5-oxo-5,6,7,8-tetrahydro-1,6-naphthyridin-2-yl}biphenyl-3-carboxamide]
1.6 | COc1cccc(Nc2cc(-c3cccc(Sc4cccc(OC)c4)c3)nc3c2C(=O)NCC3)c1 [Example 16, 4-[(3-Methoxyphenyl)amino]-2-{3-[(3-methoxyphenyl)thio]phenyl}-7,8-dihydro-1,6-naphthyridin-5(6H)-one]
25 | O=C1NCCc2nc(-c3ccccc3)cc(NCc3ccncc3)c21 [Example 17, 2-Phenyl-4-[(pyridin-4-ylmethyl)amino]-7,8-dihydro-1,6-naphthyridin-5(6H)-one]
1.5 | NC(=O)c1ccc(Nc2cc(-c3ccccc3)nc3c2C(=O)NCC3)cc1 [Example 18, 4-[(5-Oxo-2-phenyl-5,6,7,8-tetrahydro-1,6-naphthyridin-4-yl)amino]benzamide]
2.3 | COc1cc(Nc2cc(-c3ccccc3)nc3c2C(=O)NCC3)ccc1C(=O)O [Example 19, 2-Methoxy-4-[(5-oxo-2-phenyl-5,6,7,8-tetrahydro-1,6-naphthyridin-4-yl)amino]benzoic acid]
3.6 | COc1cccc(Nc2cc(-c3ccncc3)nc3c2C(=O)NCC3)c1 [Example 22, 4-[(3-Methoxyphenyl)amino]-2-pyridin-4-yl-7,8-dihydro-1,6-naphthyridin-5(6H)-one]
0.96 | O=C1NCCc2nc(-c3ccccc3)cc(Nc3cccc4ncccc34)c21 [Example 24, 2-Phenyl-4-(quinolin-5-ylamino)-7,8-dihydro-1,6-naphthyridin-5(6H)-one]
9 | O=C(O)c1ccc(Nc2cc(-c3ccccc3)nc3c2C(=O)NCC3)cc1 [Example 25, 4-[(5-Oxo-2-phenyl-5,6,7,8-tetrahydro-1,6-naphthyridin-4-yl)amino]benzoic acid]
117 | COc1cccc(Nc2cc(-c3ccccc3)nc3c2C(=O)NC(C)C3)c1 (stereo not drawn) [Example 26, 4-[(3-Methoxyphenyl)amino]-7-methyl-2-phenyl-7,8-dihydro-1,6-naphthyridin-5(6H)-one]
52 | COc1cccc(Nc2nc(-c3ccccc3)nc3c2C(=O)NCC3)c1 [Example 32, 4-[(3-Methoxyphenyl)amino]-2-phenyl-7,8-dihydropyrido[4,3-d]pyrimidin-5(6H)-one]
9 | COc1cccc(Nc2cc(C3CC3)nc3c2C(=O)NCC3)c1 [Example 33, 2-Cyclopropyl-4-[(3-methoxyphenyl)amino]-7,8-dihydro-1,6-naphthyridin-5(6H)-one]
0.81 | COc1cccc(Nc2cc(-c3cccc(-c4cc(C(=O)O)ccc4Cl)c3)nc3c2C(=O)NCC3)c1 [Example 35, 6-Chloro-3'-{4-[(3-methoxyphenyl)amino]-5-oxo-5,6,7,8-tetrahydro-1,6-naphthyridin-2-yl}biphenyl-3-carboxylic acid]
14 | O=C1NCCc2nc(-c3ccccc3)cc(Nc3cccc4cnccc34)c21 [Example 37, 4-(Isoquinolin-5-ylamino)-2-phenyl-7,8-dihydro-1,6-naphthyridin-5(6H)-one]
2.3 | O=C1NCCc2nc(-c3ccccc3)cc(Nc3ccc4ncccc4c3)c21 [Example 38, 2-Phenyl-4-(quinolin-6-ylamino)-7,8-dihydro-1,6-naphthyridin-5(6H)-one]
6 | O=C1NCCc2nc(-c3ccccc3)cc(Nc3n[nH]c4ncccc34)c21 [Example 41, 2-Phenyl-4-(1H-pyrazolo[3,4-b]pyridin-3-ylamino)-7,8-dihydro-1,6-naphthyridin-5(6H)-one]
10 | COc1cccc(Nc2cc(-c3cccc(-c4cc(C(=O)O)ccc4O)c3)nc3c2C(=O)NCC3)c1 [Example 43, 6-Hydroxy-3'-{4-[(3-methoxyphenyl)amino]-5-oxo-5,6,7,8-tetrahydro-1,6-naphthyridin-2-yl}biphenyl-3-carboxylic acid]
640 | COc1cccc(Nc2cc(-c3ccccc3)nc3c2C(=O)NCC3C)c1 (stereo not drawn) [Example 44, 4-[(3-Methoxyphenyl)amino]-8-methyl-2-phenyl-7,8-dihydro-1,6-naphthyridin-5(6H)-one]
9 | O=C1NCCc2nc(-c3ccccc3)cc(Nc3ccc(C[C@@H](O)CO)cc3)c21 [Example 47, 4-({4-[(2R)-2,3-dihydroxypropyl]phenyl}amino)-2-phenyl-7,8-dihydro-1,6-naphthyridin-5(6H)-one]
0.17 | O=C(NC1CC1)c1cccc(-c2cccc(-c3cc(Nc4cccc5ncccc45)c4c(n3)CCNC4=O)c2)c1 [Example 49, N-Cyclopropyl-3'-[5-oxo-4-(quinolin-5-ylamino)-5,6,7,8-tetrahydro-1,6-naphthyridin-2-yl]biphenyl-3-carboxamide]
0.43 | O=C1NCCc2nc(-c3ccccc3)cc(Nc3cccc4c3ccc[n+]4[O-])c21 [Example 51, 4-[(1-Oxidoquinolin-5-yl)amino]-2-phenyl-7,8-dihydro-1,6-naphthyridin-5(6H)-one]
0.05 | O=C(NC1CC1)c1cccc(-c2cccc(-c3cc(Nc4cccc5c4ccc[n+]5[O-])c4c(n3)CCNC4=O)c2)c1 [Example 56, N-Cyclopropyl-3'-{4-[(1-oxidoquinolin-5-yl)amino]-5-oxo-5,6,7,8-tetrahydro-1,6-naphthyridin-2-yl}biphenyl-3-carboxamide]
0.9 | N#C/N=C1\NCCc2nc(-c3ccc(F)c(F)c3)cc(Nc3cccc4ncccc34)c21 [Example 57, [(5Z)-2-(3,4-Difluorophenyl)-4-(quinolin-5-ylamino)-7,8-dihydro-1,6-naphthyridin-5(6H)-ylidene]cyanamide]
0.105 | CN(C)CCCNC(=O)c1cccc(-c2cccc(-c3cc(Nc4cccc5ncccc45)c4c(n3)CCNC4=O)c2)c1 [Example 59, N-[3-(Dimethylamino)propyl]-3'-[5-oxo-4-(quinolin-5-ylamino)-5,6,7,8-tetrahydro-1,6-naphthyridin-2-yl]biphenyl-3-carboxamide]
0.05 | Cc1c(F)cc(C(=O)NC2CC2)cc1-c1cccc(-c2cc(Nc3cccc4ncccc34)c3c(n2)CCNC3=O)c1 [Example 61, N-Cyclopropyl-5-fluoro-6-methyl-3'-[5-oxo-4-(quinolin-5-ylamino)-5,6,7,8-tetrahydro-1,6-naphthyridin-2-yl]biphenyl-3-carboxamide]
